Source: ChEMBL document CHEMBL1152094, “Res-701-1, synthesis and a reevaluation of its effects on the endothelin receptors” (Bioorg Med Chem Lett, 1995)
pIC50: −log10 of the molar value. Starred links: 1 amine or outer side, 2 acyl side, 3 side chain; linkers in the order of their positions; H or OH if unused. Non-standard residues stand in square brackets, D forms with d. Residues, ends and D or L forms follow the SMILES beside them. X1 = O=C([C@@H](N[*:1])C1c2ccccc2CCc2ccccc21)[*:2]

Key:
[1] = target: T1, Endothelin receptor type B (Homo sapiens, UniProt P24530); test: Binding affinity in Chinese hamster ovary (CHO) cells stably transfected with human endothelin B (ETB) receptor; type: cell-based
T1 sequence (P24530 whole entry): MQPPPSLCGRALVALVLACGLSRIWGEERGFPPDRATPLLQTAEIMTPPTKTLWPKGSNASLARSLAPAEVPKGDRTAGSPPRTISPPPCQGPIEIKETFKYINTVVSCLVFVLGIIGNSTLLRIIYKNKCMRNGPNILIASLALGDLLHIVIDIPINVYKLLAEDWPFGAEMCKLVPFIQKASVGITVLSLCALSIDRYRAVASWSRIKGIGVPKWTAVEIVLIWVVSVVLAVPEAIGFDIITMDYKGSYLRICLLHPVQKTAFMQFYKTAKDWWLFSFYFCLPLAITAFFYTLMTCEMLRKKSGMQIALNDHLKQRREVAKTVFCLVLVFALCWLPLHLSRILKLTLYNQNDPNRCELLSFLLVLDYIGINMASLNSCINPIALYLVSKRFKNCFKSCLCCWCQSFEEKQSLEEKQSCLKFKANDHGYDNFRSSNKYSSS

Endothelin-1 receptor = target: T2, Endothelin-1 receptor (Homo sapiens, UniProt P25101); test: Binding affinity in LtK cells stably transfected with human endothelin A (ETA) receptor; type: cell-based
T2 sequence (P25101 whole entry): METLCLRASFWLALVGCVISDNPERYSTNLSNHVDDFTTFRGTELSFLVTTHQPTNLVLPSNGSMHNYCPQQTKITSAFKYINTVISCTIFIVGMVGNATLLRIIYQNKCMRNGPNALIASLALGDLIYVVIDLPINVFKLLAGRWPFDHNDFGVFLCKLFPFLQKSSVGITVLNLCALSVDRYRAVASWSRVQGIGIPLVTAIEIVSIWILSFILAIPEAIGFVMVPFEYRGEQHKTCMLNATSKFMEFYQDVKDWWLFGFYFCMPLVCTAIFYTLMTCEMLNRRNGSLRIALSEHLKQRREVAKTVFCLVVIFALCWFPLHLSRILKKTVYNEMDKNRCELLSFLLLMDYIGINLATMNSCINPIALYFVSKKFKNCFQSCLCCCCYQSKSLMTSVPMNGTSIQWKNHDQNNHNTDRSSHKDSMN

| SMILES | pIC50 [1] | pIC50 (Endothelin-1 receptor) |
| --- | --- | --- |
| CC(=O)N[C@@H](Cc1c[nH]c2ccccc12)C(=O)N[C@@H](Cc1ccccc1)C(=O)N[C@@H](Cc1ccccc1)C(=O)N[C@@H](CC(N)=O)C(=O)N[C@@H](Cc1ccc(O)cc1)C(=O)N[C@@H](Cc1ccc(O)cc1)C(=O)N[C@@H](Cc1c[nH]c2ccccc12)C(=O)O | 5.12 | 6.60 |
| CC(=O)N[C@H](C(=O)N[C@@H](Cc1ccccc1)C(=O)N[C@@H](CC(N)=O)C(=O)N[C@@H](Cc1ccc(O)cc1)C(=O)N[C@@H](Cc1ccc(O)cc1)C(=O)N[C@@H](Cc1c[nH]c2ccccc12)C(=O)O)C1c2ccccc2CCc2ccccc21 (Ac-[X1]FNYYW-OH) | 5.37 | 5.72 |
| NC(=O)C[C@H](NC(=O)[C@H](Cc1ccccc1)NC(=O)[C@H](Cc1ccccc1)NC(=O)[C@@H](N)Cc1c[nH]c2ccccc12)C(=O)N[C@@H](Cc1ccc(O)cc1)C(=O)N[C@@H](Cc1ccc(O)cc1)C(=O)N[C@@H](Cc1c[nH]c2ccccc12)C(=O)O (H-WFFNYYW-OH) | 4.82 | 5.62 |
| NC(=O)C[C@H](NC(=O)[C@H](Cc1ccccc1)NC(=O)[C@@H](N)C1c2ccccc2CCc2ccccc21)C(=O)N[C@@H](Cc1ccc(O)cc1)C(=O)N[C@@H](Cc1ccc(O)cc1)C(=O)N[C@@H](Cc1c[nH]c2ccccc12)C(=O)O (H-[X1]FNYYW-OH) | 4.89 | 5.02 |
| C[C@@H]1NC(=O)[C@H]([C@@H](C)O)NC(=O)CNC(=O)[C@H](Cc2c[nH]cn2)NC(=O)[C@H](Cc2c[nH]c3ccccc23)NC(=O)[C@H](CC(N)=O)NC(=O)CNC(=O)C[C@@H](C(=O)N[C@@H](Cc2c[nH]c3ccccc23)C(=O)N[C@@H](Cc2ccccc2)C(=O)N[C@@H](Cc2ccccc2)C(=O)N[C@@H](CC(N)=O)C(=O)N[C@@H](Cc2ccc(O)cc2)C(=O)N[C@@H](Cc2ccc(O)cc2)C(=O)N[C@@H](Cc2c[nH]c3ccccc23)C(=O)O)NC(=O)[C@@H]2CCCN2C1=O (stereo in doubt; 1) | 8.00 | < 5.30 |
| C[C@@H]1NC(=O)[C@H]([C@@H](C)O)NC(=O)CNC(=O)[C@H](Cc2c[nH]cn2)NC(=O)[C@H](Cc2c[nH]c3ccccc23)NC(=O)[C@H](CC(N)=O)NC(=O)CNC(=O)C[C@@H](C(=O)N[C@@H](Cc2c[nH]c3ccccc23)C(=O)N[C@@H](Cc2ccccc2)C(=O)N[C@@H](Cc2ccccc2)C(=O)N[C@@H](CC(N)=O)C(=O)N[C@@H](Cc2ccc(O)cc2)C(=O)N[C@@H](Cc2ccc(O)cc2)C(=O)N[C@@H](Cc2c[nH]c3ccccc23)C(=O)O)NC(=O)[C@@H]2CCCN2C1=O (stereo in doubt; 2) | 5.19 | 5.11 |

Next, values leading:

| pIC50 [1] | pIC50 (Endothelin-1 receptor) | SMILES |
| --- | --- | --- |
| < 5.60 | < 5.60 | C[C@H](NC(=O)[C@@H](NC(=O)CNC(=O)[C@H](Cc1c[nH]cn1)NC(=O)[C@H](Cc1c[nH]c2ccccc12)NC(=O)[C@H](CC(N)=O)NC(=O)CN)[C@@H](C)O)C(=O)N1CCC[C@H]1C(=O)N[C@@H](CC(=O)O)C(=O)N[C@@H](Cc1c[nH]c2ccccc12)C(=O)N[C@@H](Cc1ccccc1)C(=O)N[C@@H](Cc1ccccc1)C(=O)N[C@@H](CC(N)=O)C(=O)N[C@@H](Cc1ccc(O)cc1)C(=O)N[C@@H](Cc1ccc(O)cc1)C(=O)N[C@@H](Cc1c[nH]c2ccccc12)C(=O)O |
| 4.85 | 5.09 | CC(=O)N[C@H](Cc1c[nH]c2ccccc12)C(=O)N[C@@H](Cc1ccccc1)C(=O)N[C@@H](Cc1ccccc1)C(=O)N[C@@H](CC(N)=O)C(=O)N[C@@H](Cc1ccc(O)cc1)C(=O)N[C@@H](Cc1ccc(O)cc1)C(=O)N[C@@H](Cc1c[nH]c2ccccc12)C(=O)O |
| < 4.60 | < 4.60 | NC(=O)C[C@H](NC(=O)[C@H](Cc1ccccc1)NC(=O)[C@@H](N)Cc1ccccc1)C(=O)N[C@@H](Cc1ccc(O)cc1)C(=O)N[C@@H](Cc1ccc(O)cc1)C(=O)N[C@@H](Cc1c[nH]c2ccccc12)C(=O)O (H-FFNYYW-OH) |
| < 5.60 | < 5.60 | C[C@H](NC(=O)[C@@H](NC(=O)CNC(=O)[C@H](Cc1c[nH]cn1)NC(=O)[C@@H](N)Cc1c[nH]c2ccccc12)[C@@H](C)O)C(=O)N1CCC[C@H]1C(=O)N[C@@H](CC(=O)O)C(=O)N[C@@H](Cc1c[nH]c2ccccc12)C(=O)N[C@@H](Cc1ccccc1)C(=O)N[C@@H](Cc1ccccc1)C(=O)N[C@@H](CC(N)=O)C(=O)N[C@@H](Cc1ccc(O)cc1)C(=O)N[C@@H](Cc1ccc(O)cc1)C(=O)N[C@@H](Cc1c[nH]c2ccccc12)C(=O)O (H-WHGTAPDWFFNYYW-OH) |
